# Measured values: US8287845B2, “Hair-binding peptides” (E I du Pont de Nemours and Company, priority 2008, dated 2012)
# Settings: biotinylated peptide in TBST with 1 mg/mL BSA, 1 hour at room temperature, streptavidin-HRP/TMB, A450; MB50 calculated from Scatchard plots
# Protocol: The MB50 provides an indication of the strength of the binding interaction or affinity of the components of the complex.
# Then, the streptavidin-horseradish peroxidase (HRP) conjugate (Pierce Chemical Co., Rockford, Ill.) was added to each well (1.0 μg per well), and incubated for 1 h at room temperature, followed by 6 times of washes with TBST. […] The results were plotted as A450 versus the concentration of peptide using GraphPad Prism 4.0 (GraphPad Software, Inc., San Diego, Calif.).
row,Substance,MB50 [nM]
1,RRSMSLRMLTRGIKWSAMAYLASRWIL-K(biotin)-NH2 [CXH-W3],72
2,SLRRRWTTFGKILRRWTLPTAMLLVMM-K(biotin)-NH2 [CXH-W4],21
